Source: patent US20080176936A1, “Classes of Compounds that Interact with Integrins” (priority 2005, published 2008)

Legend:
αVβ3 integrin = target: T1, αVβ3 integrin (Homo sapiens, UniProt P05106+P06756); assay: ELISA: inhibition of binding of αVβ3 integrin (source WM-115 cell line) to coated extracellular matrix protein; settings: WM-115 cell line as integrin source
T1 construct: the cell line WM-115 was used as a source of αVβ3 integrin; endogenous in cells; host or cells: WM-115 cell line
Experimental: (§1) An ELISA assay based on the published method of Bethert et al., 2000, J Biol Chem 275, 33308-23, was employed.
(§2) Briefly, appropriate microtitre plates were coated with either Fibrinogen or Vitronectin (10 μg/well). These extracellular matrix proteins contain the RGD amino acid sequence that is recognized by αllbβ3 integrin. Human platelet membrane preparations were used as a source of αllbβ3 integrin and the cell line WM-115 was used as a source of αVβ3 integrin. Inhibition of the binding of αllbβ3 integrin containing membrane preparations to the extracellular matrix protein was determined by pre-incubating the platelet membrane preparation with test or control compounds. The binding of the αllbβ3 integrin containing membrane was the quantitated by using a rabbit anti-integrinβ3 antibody, a horse radish peroxidase coupled second antibody and a standard colorimetric detection system.

αllbβ3 integrin = target: T2, αllbβ3 integrin (Homo sapiens, UniProt P05106+P08514); assay: ELISA: inhibition of binding of αllbβ3 integrin membrane preparation to coated extracellular matrix protein; settings: human platelet membrane preparation
T2 construct: Human platelet membrane preparations were used as a source of αllbβ3 integrin; from tissue; host or cells: human platelets (membrane preparation)
Experimental: as §1, §2

T1 sequence (P06756 31-889 limits assumed): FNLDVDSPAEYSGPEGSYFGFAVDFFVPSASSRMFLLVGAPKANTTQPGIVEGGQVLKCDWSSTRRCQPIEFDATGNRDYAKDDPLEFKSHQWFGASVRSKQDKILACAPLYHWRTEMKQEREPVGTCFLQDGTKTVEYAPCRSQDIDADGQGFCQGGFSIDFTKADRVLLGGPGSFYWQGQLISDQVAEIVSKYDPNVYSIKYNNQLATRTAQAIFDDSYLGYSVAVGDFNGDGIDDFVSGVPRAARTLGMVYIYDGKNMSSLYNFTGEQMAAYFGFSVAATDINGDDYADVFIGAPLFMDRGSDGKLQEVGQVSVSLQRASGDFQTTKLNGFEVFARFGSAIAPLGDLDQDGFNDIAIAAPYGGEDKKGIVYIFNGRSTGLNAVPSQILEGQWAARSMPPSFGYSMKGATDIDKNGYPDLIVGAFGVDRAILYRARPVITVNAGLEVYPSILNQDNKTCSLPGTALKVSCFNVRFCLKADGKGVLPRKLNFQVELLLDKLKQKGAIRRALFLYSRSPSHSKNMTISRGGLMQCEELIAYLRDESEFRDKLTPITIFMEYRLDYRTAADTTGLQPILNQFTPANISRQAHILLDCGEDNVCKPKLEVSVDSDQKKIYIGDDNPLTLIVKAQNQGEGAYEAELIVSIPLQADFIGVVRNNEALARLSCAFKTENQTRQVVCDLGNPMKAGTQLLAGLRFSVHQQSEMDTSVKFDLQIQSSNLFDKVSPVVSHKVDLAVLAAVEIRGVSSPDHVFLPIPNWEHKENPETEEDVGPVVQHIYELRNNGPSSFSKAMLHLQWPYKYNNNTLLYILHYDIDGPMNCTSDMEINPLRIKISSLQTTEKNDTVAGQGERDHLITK
T1 sequence (P06756 891-1048 partner limits assumed): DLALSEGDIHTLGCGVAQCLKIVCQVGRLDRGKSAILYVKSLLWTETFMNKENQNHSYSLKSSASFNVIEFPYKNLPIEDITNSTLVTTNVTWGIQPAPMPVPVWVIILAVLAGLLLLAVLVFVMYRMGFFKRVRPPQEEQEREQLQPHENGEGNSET
T1 sequence (P05106 27-788): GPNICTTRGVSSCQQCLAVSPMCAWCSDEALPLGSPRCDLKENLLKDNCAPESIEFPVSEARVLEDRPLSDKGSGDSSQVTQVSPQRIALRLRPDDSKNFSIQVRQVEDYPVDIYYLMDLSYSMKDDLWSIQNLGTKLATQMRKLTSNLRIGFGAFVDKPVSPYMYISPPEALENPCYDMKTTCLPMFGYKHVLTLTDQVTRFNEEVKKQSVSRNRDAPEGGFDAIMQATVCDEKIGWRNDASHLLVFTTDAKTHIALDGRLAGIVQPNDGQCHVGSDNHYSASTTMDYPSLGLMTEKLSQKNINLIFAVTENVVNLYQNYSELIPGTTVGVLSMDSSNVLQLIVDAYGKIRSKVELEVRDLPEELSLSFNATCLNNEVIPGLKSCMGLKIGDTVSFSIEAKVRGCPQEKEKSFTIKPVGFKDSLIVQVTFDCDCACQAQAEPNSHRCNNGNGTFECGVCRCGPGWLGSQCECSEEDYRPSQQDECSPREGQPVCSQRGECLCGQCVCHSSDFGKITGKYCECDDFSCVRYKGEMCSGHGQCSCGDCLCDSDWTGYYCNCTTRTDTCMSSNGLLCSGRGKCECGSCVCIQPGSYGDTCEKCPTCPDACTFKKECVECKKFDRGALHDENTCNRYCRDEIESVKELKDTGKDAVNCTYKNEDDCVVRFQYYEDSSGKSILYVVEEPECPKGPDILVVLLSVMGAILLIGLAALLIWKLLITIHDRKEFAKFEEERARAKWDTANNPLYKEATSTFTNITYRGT
T2 sequence (P08514 32-887 limits assumed): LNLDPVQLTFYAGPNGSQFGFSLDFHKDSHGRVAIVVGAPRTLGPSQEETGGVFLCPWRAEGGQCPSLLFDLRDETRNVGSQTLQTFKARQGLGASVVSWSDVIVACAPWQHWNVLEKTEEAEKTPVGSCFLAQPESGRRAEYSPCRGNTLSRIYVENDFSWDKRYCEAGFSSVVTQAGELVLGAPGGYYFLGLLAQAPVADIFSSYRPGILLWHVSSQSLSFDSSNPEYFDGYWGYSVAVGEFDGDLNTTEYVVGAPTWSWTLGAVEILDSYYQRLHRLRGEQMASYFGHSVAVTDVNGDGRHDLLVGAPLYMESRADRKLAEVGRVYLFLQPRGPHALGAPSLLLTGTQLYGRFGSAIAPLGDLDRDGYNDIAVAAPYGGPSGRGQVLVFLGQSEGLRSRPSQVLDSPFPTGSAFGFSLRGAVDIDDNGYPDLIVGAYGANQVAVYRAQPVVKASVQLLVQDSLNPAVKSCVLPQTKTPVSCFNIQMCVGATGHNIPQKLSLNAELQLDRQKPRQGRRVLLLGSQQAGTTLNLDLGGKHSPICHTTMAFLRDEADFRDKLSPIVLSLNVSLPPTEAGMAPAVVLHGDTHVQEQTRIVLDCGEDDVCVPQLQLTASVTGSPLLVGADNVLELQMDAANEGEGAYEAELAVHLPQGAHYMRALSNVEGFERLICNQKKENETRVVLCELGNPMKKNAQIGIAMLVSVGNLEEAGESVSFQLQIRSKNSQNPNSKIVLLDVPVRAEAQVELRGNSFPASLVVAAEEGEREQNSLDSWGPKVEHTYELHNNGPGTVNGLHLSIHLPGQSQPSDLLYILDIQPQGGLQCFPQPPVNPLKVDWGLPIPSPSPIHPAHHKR
T2 sequence (P08514 891-1039 partner limits assumed): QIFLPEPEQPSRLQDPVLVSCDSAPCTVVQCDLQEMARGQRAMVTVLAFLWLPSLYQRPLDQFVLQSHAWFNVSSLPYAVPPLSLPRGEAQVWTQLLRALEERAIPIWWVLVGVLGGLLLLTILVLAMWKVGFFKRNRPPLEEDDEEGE
T2 sequence (P05106 27-788): as the sequence (P05106 27-788) above

| SMILES | INHIBITION 250 uM RECEPTOR aVb3 SUBSTRATE FIBRINOGEN (αVβ3 integrin) | INHIBITION @ 250 uM RECEPTOR allBb3 SUBSTRATE FIBRINOGEN (αllbβ3 integrin) | INHIBITION 250 uM RECEPTOR allBb3 SUBSTRATE VITRONECTIN (αllbβ3 integrin) |
| --- | --- | --- | --- |
| CCOC1O[C@H](COCc2ccccc2)[C@@H](O)[C@H](OCC(=O)O)[C@H]1NC(=O)CCNC(=N)N (single isomer, unassigned) [Compound 48] | +++ (81% to 100% inhibition at 250 micromolar) | ++ (61% to 80% inhibition at 250 micromolar) | +++ (81% to 100% inhibition at 250 micromolar) |
| CCOC1O[C@H](COCc2ccccc2)[C@@H](O)[C@H](OCC(=O)O)[C@H]1NC(=O)CCNC(=N)N (single isomer, unassigned) [Compound 49] | +++ (81% to 100% inhibition at 250 micromolar) | ++ (61% to 80% inhibition at 250 micromolar) | +++ (81% to 100% inhibition at 250 micromolar) |
| CCOC1O[C@H](COCc2ccc(Br)cc2)[C@@H](O)[C@H](OCC(=O)O)[C@H]1NC(=O)CCNC(=N)N (single isomer, unassigned) [Compound 50] | +++ (81% to 100% inhibition at 250 micromolar) | + (36% to 60% inhibition at 250 micromolar) | +++ (81% to 100% inhibition at 250 micromolar) |
| CCOC1O[C@H](COCc2ccc(Br)cc2)[C@@H](O)[C@H](OCC(=O)O)[C@H]1NC(=O)CCNC(=N)N (single isomer, unassigned) [Compound 51] | ++ (61% to 80% inhibition at 250 micromolar) | ++ (61% to 80% inhibition at 250 micromolar) | +++ (81% to 100% inhibition at 250 micromolar) |
| CCOC1O[C@H](COCc2ccc(Br)cc2)[C@@H](O)[C@H](OCC(=O)O)[C@H]1NC(=O)CCNC(=N)N (single isomer, unassigned) [Compound 52] | +++ (81% to 100% inhibition at 250 micromolar) | + (36% to 60% inhibition at 250 micromolar) | ++ (61% to 80% inhibition at 250 micromolar) |
| CCOC1O[C@H](COCc2cccc(N)c2)[C@@H](O)[C@H](OCC(=O)O)[C@H]1NC(=O)c1ccccc1 (single isomer, unassigned) [Compound 54] | + (36% to 60% inhibition at 250 micromolar) | − (0% to 35% inhibition at 250 micromolar) | ++ (61% to 80% inhibition at 250 micromolar) |
| CCOC1O[C@H](COCc2cccc(N)c2)[C@@H](O)[C@H](OCC(=O)O)[C@H]1NC(=O)c1ccccc1 (single isomer, unassigned) [Compound 55] | +++ (81% to 100% inhibition at 250 micromolar) | + (36% to 60% inhibition at 250 micromolar) | +++ (81% to 100% inhibition at 250 micromolar) |
| CCOC1O[C@H](COCc2ccccc2)[C@@H](O)[C@H](OCc2ccc(C(=O)O)cc2)[C@H]1NC(=O)CCNC(=N)N (single isomer, unassigned) [Compound 57] | +++ (81% to 100% inhibition at 250 micromolar) | − (0% to 35% inhibition at 250 micromolar) | +++ (81% to 100% inhibition at 250 micromolar) |
| CCOC1O[C@H](COCc2ccccc2)[C@@H](O)[C@H](OCc2ccc(C(=O)O)cc2)[C@H]1NC(=O)CCNC(=N)N (single isomer, unassigned) [Compound 58] | +++ (81% to 100% inhibition at 250 micromolar) | + (36% to 60% inhibition at 250 micromolar) | +++ (81% to 100% inhibition at 250 micromolar) |
| N=C(N)NCCC(=O)N[C@H]1C(O)O[C@H](COCc2ccccc2)[C@@H](O)[C@@H]1OCc1ccc(C(=O)O)cc1 (single isomer, unassigned) [Compound 59] | +++ (81% to 100% inhibition at 250 micromolar) | + (36% to 60% inhibition at 250 micromolar) | +++ (81% to 100% inhibition at 250 micromolar) |
| CCOC1O[C@H](COCc2ccc(Br)cc2)[C@@H](O)[C@H](OCc2ccc(C(=O)O)cc2)[C@H]1NC(=O)CCNC(=N)N (single isomer, unassigned) [Compound 60] | +++ (81% to 100% inhibition at 250 micromolar) | + (36% to 60% inhibition at 250 micromolar) | +++ (81% to 100% inhibition at 250 micromolar) |
| CCOC1O[C@H](COCc2ccc(Br)cc2)[C@@H](O)[C@H](OCc2ccc(C(=O)O)cc2)[C@H]1NC(=O)CCNC(=N)N (single isomer, unassigned) [Compound 61] | +++ (81% to 100% inhibition at 250 micromolar) | − (0% to 35% inhibition at 250 micromolar) | +++ (81% to 100% inhibition at 250 micromolar) |
| N=C(N)NCCC(=O)N[C@H]1C(O)O[C@H](COCc2ccc(Br)cc2)[C@@H](O)[C@@H]1OCc1ccc(C(=O)O)cc1 (single isomer, unassigned) [Compound 63] | − (0% to 35% inhibition at 250 micromolar) | ++ (61% to 80% inhibition at 250 micromolar) | +++ (81% to 100% inhibition at 250 micromolar) |
| CCOC1OC(COCc2cccc(N)c2)C(O)C(OCc2ccc(C(=O)O)cc2)C1NC(=O)c1ccc(Cl)cc1 (single isomer, unassigned) [Compound 64] | + (36% to 60% inhibition at 250 micromolar) | − (0% to 35% inhibition at 250 micromolar) | ++ (61% to 80% inhibition at 250 micromolar) |
| Nc1cccc(COCC2OC(O)C(NC(=O)c3ccc(Cl)cc3)C(OCc3ccc(C(=O)O)cc3)C2O)c1 (single isomer, unassigned) [Compound 66] | + (36% to 60% inhibition at 250 micromolar) | + (36% to 60% inhibition at 250 micromolar) | +++ (81% to 100% inhibition at 250 micromolar) |
| Nc1cccc(COCC2OC(O)C(NC(=O)c3ccc(Cl)cc3)C(OCc3ccc(C(=O)O)cc3)C2O)c1 (single isomer, unassigned) [Compound 67] | − (0% to 35% inhibition at 250 micromolar) | + (36% to 60% inhibition at 250 micromolar) | +++ (81% to 100% inhibition at 250 micromolar) |
| CCOC1OC(COCc2ccccc2)C(O)C(OCc2cccc(N)c2)C1NC(=O)c1ccc(C(=O)O)cc1 (single isomer, unassigned) [Compound 68] | ++ (61% to 80% inhibition at 250 micromolar) | − (0% to 35% inhibition at 250 micromolar) | ++ (61% to 80% inhibition at 250 micromolar) |
| CCOC1OC(COCc2ccccc2)C(O)C(OCc2cccc(N)c2)C1NC(=O)c1ccc(C(=O)O)cc1 (single isomer, unassigned) [Compound 69] | +++ (81% to 100% inhibition at 250 micromolar) | − (0% to 35% inhibition at 250 micromolar) | +++ (81% to 100% inhibition at 250 micromolar) |
| Nc1cccc(COC2C(O)C(COCc3ccccc3)OC(O)C2NC(=O)c2ccc(C(=O)O)cc2)c1 (single isomer, unassigned) [Compound 70] | +++ (81% to 100% inhibition at 250 micromolar) | + (36% to 60% inhibition at 250 micromolar) | +++ (81% to 100% inhibition at 250 micromolar) |
| Nc1cccc(COC2C(O)C(COCc3ccccc3)OC(O)C2NC(=O)c2ccc(C(=O)O)cc2)c1 (single isomer, unassigned) [Compound 71] | +++ (81% to 100% inhibition at 250 micromolar) | − (0% to 35% inhibition at 250 micromolar) | +++ (81% to 100% inhibition at 250 micromolar) |
| CCOC1OC(COCc2ccc(Br)cc2)C(O)C(OCc2cccc(N)c2)C1NC(=O)c1ccc(C(=O)O)cc1 (single isomer, unassigned) [Compound 72] | +++ (81% to 100% inhibition at 250 micromolar) | + (36% to 60% inhibition at 250 micromolar) | +++ (81% to 100% inhibition at 250 micromolar) |
| CCOC1OC(COCc2ccc(Br)cc2)C(O)C(OCc2cccc(N)c2)C1NC(=O)c1ccc(C(=O)O)cc1 (single isomer, unassigned) [Compound 73] | − (0% to 35% inhibition at 250 micromolar) | ++ (61% to 80% inhibition at 250 micromolar) | +++ (81% to 100% inhibition at 250 micromolar) |
